Series [1] can be described thus: Chemical stability of the compound after 72 hr by HPLC analysis. Format: physicochemical.
Series [2] has as its system Solanum lycopersicum. The series is described as follows: Phytotoxicity in Solanum lycopersicum (tomato) assessed as effect on shoot and root fresh weight at 0.03 to 30.72 ug/g after 24 hr. Type of series: organism-based. The following applies: in vivo.
Series [3] relates to Solanum lycopersicum. Put plainly: Toxicity in Solanum lycopersicum (tomato) assessed as effect on shoot and root fresh weight at 0.03 to 30.72 ug/g after 24 hr. Format: organism-based. The following applies: in vivo.
The test system of series [4] is Meloidogyne incognita. Put plainly: Insecticidal activity against second stage juveniles of Meloidogyne incognita (root-knot nematode) assessed as increase in immotile at 12.8 to 51.2 ug a.i/ml in water after 24 to 96 hr. Type of series: functional.
Series [5] in a line: Chemical stability of the compound after 4 days by HPLC analysis. Format: physicochemical. As to conditions: 96 h.
For series [6], the system named is Meloidogyne incognita. Put plainly: Insecticidal activity against second stage juveniles of Meloidogyne incognita (root-knot nematode) assessed as motility at 0.2 to 3.2 ug a.i/ml in water after 24 to 96 hr. Type of series: functional, organism-based.
The test system of series [7] is Meloidogyne incognita. Put plainly: Insecticidal activity against second stage juveniles of Meloidogyne incognita (root-knot nematode) assessed as decrease of female nematodes in tomato roots at 0.03 to 30.72 ug/g after 30 days by pot bioassay. Type of series: functional, organism-based.
For series [8], the system named is Meloidogyne incognita. The series is described as follows: Insecticidal activity against second stage juveniles of Meloidogyne incognita (root-knot nematode) assessed as motility at 0.2 ug a.i/ml in water after 24 to 96 hr. Format: functional, organism-based.
For series [9], the system named is Meloidogyne incognita. Put plainly: Insecticidal activity against second stage juveniles of Meloidogyne incognita (root-knot nematode) assessed as increase in immotile at 51.2 ug a.i/ml in methanol after 48 to 96 hr. Type of series: functional.
For series [10], the system named is Meloidogyne incognita. Put plainly: Insecticidal activity against second stage juveniles of Meloidogyne incognita (root-knot nematode) assessed as decrease of female nematodes in tomato roots at 2 ug/g after 30 days by pot bioassay. Format: functional, organism-based.
Series [11] deals with Solanum lycopersicum. Put plainly: Toxicity in Solanum lycopersicum (tomato) assessed as effect on shoot and root fresh weight at 2 ug/g after 24 hr. Format: organism-based. As to conditions: in vivo.
In series [12] the test system is Solanum lycopersicum. The series is described as follows: Phytotoxicity in Solanum lycopersicum (tomato) assessed as effect on shoot and root fresh weight at 2 ug/g after 24 hr. The following applies: in vivo. Type of series: organism-based.
Series [13] deals with Meloidogyne incognita. The series is described as follows: Insecticidal activity against second stage juveniles of Meloidogyne incognita (root-knot nematode) assessed as motility at 0.2 to 3.2 ug a.i/ml in methanol after 24 to 96 hr. Type of series: functional, organism-based.
In series [14] the test system is Meloidogyne incognita. Put plainly: Insecticidal activity against second stage juveniles of Meloidogyne incognita (root-knot nematode) assessed as increase in immotile at 12.8 to 51.2 ug a.i/ml in methanol after 24 to 96 hr. Type of series: functional, organism-based.

Active and inactive are the calls of the source. The calls are words filed in the database; no cut-off is given here.

On to `C/C=C(\C)C(=O)O[C@H]1C[C@@H](OC(C)=O)[C@@]2(C(=O)OC)CO[C@H]3[C@@H](O)[C@@](C)([C@]45O[C@@]4(C)[C@@H]4C[C@H]5O[C@@H]5OC=C[C@@]54O)[C@H]4[C@]1(CO[C@]4(O)C(=O)OC)[C@@H]32` (stereo in doubt; form 2) [AZADIRACHTIN A], for which the Stability result in [1] was “Stable”. For the same compound, the Activity result with Solanum lycopersicum [2] is “Non-toxic”; in the series with Solanum lycopersicum [3], “Non-toxic”; in the series with Meloidogyne incognita [4], 21%; in series [5], 88%.

Turning to `C/C=C(\C)C(=O)O[C@H]1C[C@@H](OC(C)=O)[C@@]2(C(=O)OC)CO[C@H]3[C@@H](O)[C@@](C)([C@]45O[C@@]4(C)[C@@H]4C[C@H]5O[C@@H]5OC=C[C@@]54O)[C@H]4[C@]1(CO[C@]4(O)C(=O)OC)[C@@H]32` (stereo in doubt; form 2), the outcome in the series with Meloidogyne incognita [6], in the series with Meloidogyne incognita [7] and in the series with Meloidogyne incognita [8] was inactive.

With `C/C=C(\C)C(=O)O[C@H]1C[C@@H](OC(C)=O)[C@@]2(C(=O)OC)CO[C@H]3[C@@H](O)[C@@](C)([C@]45O[C@@]4(C)[C@@H]4C[C@H]5O[C@@H]5OC=C[C@@]54O)[C@H]4[C@]1(CO[C@]4(O)C(=O)OC)[C@@H]32` (stereo in doubt; form 1) [AZADIRACHTIN A], the figures for the Activity (in the series on Meloidogyne incognita [9]; in series [5]) were 11% and 84%, respectively.

For the compound `CCOP(=O)(SC(C)CC)N1CCSC1=O` (stereo not given) [FOSTHIAZATE], in the series on Meloidogyne incognita [10], the outcome was Active. Besides, the Activity entry in the series with Solanum lycopersicum [11] and in the series on Solanum lycopersicum [12] was “Non-toxic” throughout.

Consider `C/C=C(\C)C(=O)O[C@H]1C[C@@H](OC(C)=O)[C@@]2(C(=O)OC)CO[C@H]3[C@@H](O)[C@@](C)([C@]45O[C@@]4(C)[C@@H]4C[C@H]5O[C@@H]5OC=C[C@@]54O)[C@H]4[C@]1(CO[C@]4(O)C(=O)OC)[C@@H]32` (stereo in doubt; form 1), for which the outcome in the series with Meloidogyne incognita [13] was inactive. Besides, the result with Meloidogyne incognita [14] was Active.
